From ChEMBL document CHEMBL4385672, “Design, synthesis and biological evaluation of 2-(3,4-dimethoxyphenyl)-6 (1,2,3,6-tetrahydropyridin-4-yl)imidazo[1,2-a]pyridine analogues as antiproliferative agents” (Bioorg Med Chem Lett, 2019)
Active and inactive are the calls of the source. The rule behind the calls is not given here.

Legend:
MCF7 = assay: Antiproliferative activity against human MCF7 cells; assay type: functional, cell-based
HeLa [1] = assay: Antiproliferative activity against human HeLa cells incubated for 48 hrs by MTT assay; assay type: functional, cell-based
A549 [2] = assay: Antiproliferative activity against human A549 cells incubated for 48 hrs by MTT assay; assay type: functional, cell-based; conditions: A549, 48 h
B16-F10 [3] = assay: Antiproliferative activity against mouse B16F10 cells incubated for 48 hrs by MTT assay; assay type: functional, cell-based; conditions: B16-F10, 48 h
HEK293 = assay: Cytotoxicity in HEK293 cells assessed as reduction in cel viability incubated for 48 hrs by MTT assay; assay type: cell-based; conditions: Homo sapiens, HEK293, 48 h
HeLa [4] = assay: Antiproliferative activity against human HeLa cells at 10 to 100 uM incubated for 48 hrs by MTT assay; assay type: functional, cell-based
A549 [5] = assay: Antiproliferative activity against human A549 cells at 10 to 100 uM incubated for 48 hrs by MTT assay; assay type: functional, cell-based
B16-F10 [6] = assay: Antiproliferative activity against mouse B16F10 cells at 10 to 100 uM incubated for 48 hrs by MTT assay; assay type: functional, cell-based
B16-F10 [7] = assay: Induction of apoptosis in mouse B16F10 cells assessed as early apoptosis cells level at 7 uM incubated for 48 hrs by Annexin V-FITC and PI staining based flow cytometry (reference value: 0.03 +/- 0.013%); assay type: functional
B16-F10 [8] = assay: Induction of apoptosis in mouse B16F10 cells assessed as late apoptosis cells level at 7 uM incubated for 48 hrs by Annexin V-FITC and PI staining based flow cytometry (reference value: 0.02 +/- 0.21%); assay type: functional
[9] = Selectivity index, ratio of IC50 for cytotoxicity in HEK293 cells assessed as reduction in cell viability incubated for 48 hrs by MTT assay to IC50 for antiproliferative activity against human HeLa cells incubated for 48 hrs by MTT assay; assay type: toxicity, cell-based; conditions: read-out: Ratio IC50
[10] = Selectivity index, ratio of IC50 for cytotoxicity in HEK293 cells assessed as reduction in cell viability incubated for 48 hrs by MTT assay to IC50 for antiproliferative activity against human A549 cells incubated for 48 hrs by MTT assay; assay type: toxicity, cell-based; conditions: read-out: Ratio IC50
[11] = Selectivity index, ratio of IC50 for cytotoxicity in HEK293 cells assessed as reduction in cell viability incubated for 48 hrs by MTT assay to IC50 for antiproliferative activity against mouse B16F10 cells incubated for 48 hrs by MTT assay; assay type: toxicity, cell-based; conditions: read-out: Ratio IC50

SMILES	IC50 (MCF7)	IC50 (HeLa [1])	IC50 (A549 [2])	IC50 (B16-F10 [3])	IC50 (HEK293)	Activity (HeLa [4])	Activity (A549 [5])	Activity (B16-F10 [6])	Activity (B16-F10 [7])	Activity (B16-F10 [8])	selectivity ratio at 48 h [9]	selectivity ratio at 48 h [10]	selectivity ratio at 48 h [11]
COc1ccccc1[Se]c1c(-c2ccccc2)nc2ccc(F)cn12	12.5 µM	–	–	–	–	–	–	–	–	–	–	–	–
COc1ccc(-c2cn3cc(C4=CCN(S(=O)(=O)C5CCCC5)CC4)ccc3n2)cc1OC	–	6.47 µM	6.47 µM	7.69 µM	102 µM	Active	Active	Active	35.4%	55.6%	10 to 14	10 to 14	10 to 14
COc1ccc(-c2cn3cc(C4=CCN(C(=O)c5cccc(C(F)(F)F)c5)CC4)ccc3n2)cc1OC	–	4.86 µM	3.69 µM	7.89 µM	68.4 µM	Active	Active	Active	–	–	10 to 14	10 to 14	10 to 14
COc1ccc(-c2cn3cc(C4=CCN(C(=O)C(C)(C)C)CC4)ccc3n2)cc1OC	–	5.48 µM	4.34 µM	7.1 µM	66.6 µM	Active	Active	Active	25.4%	57.3%	10 to 14	10 to 14	10 to 14
COc1ccc(-c2cn3cc(C4=CCN(S(=O)(=O)CCc5ccccc5)CC4)ccc3n2)cc1OC	–	8.98 µM	7.69 µM	8.08 µM	70.3 µM	Active	Active	Active	–	–	10 to 14	10 to 14	10 to 14
COc1ccc(-c2cn3cc(C4=CCN(C(=O)c5ccccc5C(F)(F)F)CC4)ccc3n2)cc1OC	–	7.95 µM	2.55 µM	8.11 µM	82.9 µM	Active	Active	Active	–	–	10 to 14	10 to 14	10 to 14
